{"source": "the supplement of paper PMC10307832", "experiment_in_all_cases": "relative viability (nuclei count vs DMSO), 5 days (fraction); higher = more cells survive", "key": {"RERF-LC-KJ": {"test_system": "RERF-LC-KJ", "in_short": "(§1)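 After 5 days of treatment, lung cancer cells in 1536-well plates were fixed and stained in a single step (final 0.05% Triton X-100, 1% formaldehyde, 1 ug/ml Hoechst) and their nuclei counted on 4× images. Treatment had been applied by pin tool the day after seeding as one drug alone or as a fixed anchor-drug dose with five library-drug doses (not always all listed) in √10 steps. Relative viability is the nuclei count of treated wells divided by that of vehicle wells, and values are medians of duplicate plates.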"}, "HCC-44": {"test_system": "HCC-44", "in_short": "as §1"}, "SW 1573": {"test_system": "SW 1573", "in_short": "as §1"}, "NCI-H3122": {"test_system": "NCI-H3122", "in_short": "as §1"}, "HCC-366": {"test_system": "HCC-366", "in_short": "as §1"}, "LOU-NH91": {"test_system": "LOU-NH91", "in_short": "as §1"}, "NCI-H2405": {"test_system": "NCI-H2405", "in_short": "as §1"}, "NCI-H2085": {"test_system": "NCI-H2085", "in_short": "as §1"}, "NCI-H1666": {"test_system": "NCI-H1666", "in_short": "as §1"}, "EMC-BAC-2": {"test_system": "EMC-BAC-2", "in_short": "as §1"}, "HCC-827": {"test_system": "HCC-827", "in_short": "as §1"}, "NCI-H23": {"test_system": "NCI-H23", "in_short": "as §1"}, "EPLC-272H": {"test_system": "EPLC-272H", "in_short": "as §1"}, "NCI-H1975": {"test_system": "NCI-H1975", "in_short": "as §1"}, "NCI-H2126": {"test_system": "NCI-H2126", "in_short": "as §1"}, "SW 900": {"test_system": "SW 900", "in_short": "as §1"}, "LK-2": {"test_system": "LK-2", "in_short": "as §1"}, "LXF-289": {"test_system": "LXF-289", "in_short": "as §1"}, "LU99A": {"test_system": "LU99A", "in_short": "as §1"}, "HCC-78": {"test_system": "HCC-78", "in_short": "as §1"}, "ChaGo-K-1": {"test_system": "ChaGo-K-1", "in_short": "as §1"}, "LCLC-103H": {"test_system": "LCLC-103H", "in_short": "as §1"}, "SK-LU-1": {"test_system": "SK-LU-1", "in_short": "as §1"}}, "data": [{"compound": "C[C@@H]1CN(CC(=O)Nc2ccc3c(c2)Cc2cccc(-c4cc(=O)cc(N5CCOCC5)o4)c2S3)C[C@H](C)O1", "note": "+ O=C(CCCCCCC(=O)Nc1ccccc1)NO [Vorinostat] (partner 1 µM)", "values": [{"measurement": "relative viability", "setting": "RERF-LC-KJ; first compound 0.04 µM", "value": 0.648}, {"measurement": "relative viability", "setting": "RERF-LC-KJ; first compound 0.1265 µM", "value": 0.655}, {"measurement": "relative viability", "setting": "RERF-LC-KJ; first compound 0.4 µM", "value": 0.738}, {"measurement": "relative viability", "setting": "RERF-LC-KJ; first compound 4 µM", "value": 0.543}, {"measurement": "relative viability", "setting": "HCC-44; first compound 0.04 µM", "value": 1.12}, {"measurement": "relative viability", "setting": "HCC-44; first compound 0.1265 µM", "value": 1.01}, {"measurement": "relative viability", "setting": "HCC-44; first compound 0.4 µM", "value": 1.08}, {"measurement": "relative viability", "setting": "HCC-44; first compound 4 µM", "value": 0.966}, {"measurement": "relative viability", "setting": "SW 1573; first compound 0.04 µM", "value": 0.551}, {"measurement": "relative viability", "setting": "SW 1573; first compound 0.1265 µM", "value": 0.989}, {"measurement": "relative viability", "setting": "SW 1573; first compound 0.4 µM", "value": 0.909}, {"measurement": "relative viability", "setting": "SW 1573; first compound 4 µM", "value": 0.769}, {"measurement": "relative viability", "setting": "NCI-H3122; first compound 0.04 µM", "value": 1.01}, {"measurement": "relative viability", "setting": "NCI-H3122; first compound 0.1265 µM", "value": 0.84}, {"measurement": "relative viability", "setting": "NCI-H3122; first compound 0.4 µM", "value": 1}, {"measurement": "relative viability", "setting": "NCI-H3122; first compound 4 µM", "value": 1.29}, {"measurement": "relative viability", "setting": "HCC-366; first compound 0.04 µM", "value": 0.314}, {"measurement": "relative viability", "setting": "HCC-366; first compound 0.1265 µM", "value": 0.366}, {"measurement": "relative viability", "setting": "HCC-366; first compound 0.4 µM", "value": 0.346}, {"measurement": "relative viability", "setting": "HCC-366; first compound 4 µM", "value": 0.264}, {"measurement": "relative viability", "setting": "LOU-NH91; first compound 0.04 µM", "value": 0.611}, {"measurement": "relative viability", "setting": "LOU-NH91; first compound 0.1265 µM", "value": 0.945}, {"measurement": "relative viability", "setting": "LOU-NH91; first compound 0.4 µM", "value": 0.847}, {"measurement": "relative viability", "setting": "LOU-NH91; first compound 4 µM", "value": 0.785}, {"measurement": "relative viability", "setting": "NCI-H2405; first compound 0.04 µM", "value": 1.06}, {"measurement": "relative viability", "setting": "NCI-H2405; first compound 0.1265 µM", "value": 1.12}, {"measurement": "relative viability", "setting": "NCI-H2405; first compound 0.4 µM", "value": 0.94}, {"measurement": "relative viability", "setting": "NCI-H2405; first compound 4 µM", "value": 1.01}, {"measurement": "relative viability", "setting": "NCI-H2085; first compound 0.04 µM", "value": 0.814}, {"measurement": "relative viability", "setting": "NCI-H2085; first compound 0.1265 µM", "value": 0.782}, {"measurement": "relative viability", "setting": "NCI-H2085; first compound 0.4 µM", "value": 0.69}, {"measurement": "relative viability", "setting": "NCI-H2085; first compound 4 µM", "value": 0.667}, {"measurement": "relative viability", "setting": "NCI-H1666; first compound 0.04 µM", "value": 1.01}, {"measurement": "relative viability", "setting": "NCI-H1666; first compound 0.1265 µM", "value": 1.17}, {"measurement": "relative viability", "setting": "NCI-H1666; first compound 0.4 µM", "value": 1.09}, {"measurement": "relative viability", "setting": "NCI-H1666; first compound 4 µM", "value": 0.885}, {"measurement": "relative viability", "setting": "EMC-BAC-2; first compound 0.04 µM", "value": 0.397}, {"measurement": "relative viability", "setting": "EMC-BAC-2; first compound 0.1265 µM", "value": 0.468}, {"measurement": "relative viability", "setting": "EMC-BAC-2; first compound 0.4 µM", "value": 0.469}, {"measurement": "relative viability", "setting": "EMC-BAC-2; first compound 4 µM", "value": 0.54}, {"measurement": "relative viability", "setting": "HCC-827; first compound 0.04 µM", "value": 0.801}, {"measurement": "relative viability", "setting": "HCC-827; first compound 0.1265 µM", "value": 0.862}, {"measurement": "relative viability", "setting": "HCC-827; first compound 0.4 µM", "value": 0.727}, {"measurement": "relative viability", "setting": "HCC-827; first compound 4 µM", "value": 0.757}, {"measurement": "relative viability", "setting": "NCI-H23; first compound 0.04 µM", "value": 0.634}, {"measurement": "relative viability", "setting": "NCI-H23; first compound 0.1265 µM", "value": 0.508}, {"measurement": "relative viability", "setting": "NCI-H23; first compound 0.4 µM", "value": 0.537}, {"measurement": "relative viability", "setting": "NCI-H23; first compound 4 µM", "value": 0.589}, {"measurement": "relative viability", "setting": "EPLC-272H; first compound 0.04 µM", "value": 0.457}, {"measurement": "relative viability", "setting": "EPLC-272H; first compound 0.1265 µM", "value": 0.414}, {"measurement": "relative viability", "setting": "EPLC-272H; first compound 0.4 µM", "value": 0.407}, {"measurement": "relative viability", "setting": "EPLC-272H; first compound 4 µM", "value": 0.307}, {"measurement": "relative viability", "setting": "NCI-H1975; first compound 0.04 µM", "value": 0.68}, {"measurement": "relative viability", "setting": "NCI-H1975; first compound 0.1265 µM", "value": 0.717}, {"measurement": "relative viability", "setting": "NCI-H1975; first compound 0.4 µM", "value": 0.61}, {"measurement": "relative viability", "setting": "NCI-H1975; first compound 4 µM", "value": 0.536}, {"measurement": "relative viability", "setting": "NCI-H2126; first compound 0.04 µM", "value": 0.853}, {"measurement": "relative viability", "setting": "NCI-H2126; first compound 0.1265 µM", "value": 0.768}, {"measurement": "relative viability", "setting": "NCI-H2126; first compound 0.4 µM", "value": 0.759}, {"measurement": "relative viability", "setting": "NCI-H2126; first compound 4 µM", "value": 0.701}, {"measurement": "relative viability", "setting": "SW 900; first compound 0.04 µM", "value": 0.421}, {"measurement": "relative viability", "setting": "SW 900; first compound 0.1265 µM", "value": 0.607}, {"measurement": "relative viability", "setting": "SW 900; first compound 0.4 µM", "value": 0.534}, {"measurement": "relative viability", "setting": "SW 900; first compound 4 µM", "value": 0.381}, {"measurement": "relative viability", "setting": "LK-2; first compound 0.04 µM", "value": 0.314}, {"measurement": "relative viability", "setting": "LK-2; first compound 0.1265 µM", "value": 0.309}, {"measurement": "relative viability", "setting": "LK-2; first compound 0.4 µM", "value": 0.254}, {"measurement": "relative viability", "setting": "LK-2; first compound 4 µM", "value": 0.298}, {"measurement": "relative viability", "setting": "LXF-289; first compound 0.04 µM", "value": 0.534}, {"measurement": "relative viability", "setting": "LXF-289; first compound 0.1265 µM", "value": 0.794}, {"measurement": "relative viability", "setting": "LXF-289; first compound 0.4 µM", "value": 0.88}, {"measurement": "relative viability", "setting": "LXF-289; first compound 4 µM", "value": 0.733}, {"measurement": "relative viability", "setting": "LU99A; first compound 0.04 µM", "value": 0.444}, {"measurement": "relative viability", "setting": "LU99A; first compound 0.1265 µM", "value": 0.582}, {"measurement": "relative viability", "setting": "LU99A; first compound 0.4 µM", "value": 0.544}, {"measurement": "relative viability", "setting": "LU99A; first compound 4 µM", "value": 0.595}, {"measurement": "relative viability", "setting": "HCC-78; first compound 0.04 µM", "value": 0.455}, {"measurement": "relative viability", "setting": "HCC-78; first compound 0.1265 µM", "value": 0.417}, {"measurement": "relative viability", "setting": "HCC-78; first compound 0.4 µM", "value": 0.46}, {"measurement": "relative viability", "setting": "HCC-78; first compound 4 µM", "value": 0.4}, {"measurement": "relative viability", "setting": "ChaGo-K-1; first compound 0.04 µM", "value": 0.496}, {"measurement": "relative viability", "setting": "ChaGo-K-1; first compound 0.1265 µM", "value": 0.778}, {"measurement": "relative viability", "setting": "ChaGo-K-1; first compound 0.4 µM", "value": 0.803}, {"measurement": "relative viability", "setting": "ChaGo-K-1; first compound 4 µM", "value": 0.72}, {"measurement": "relative viability", "setting": "LCLC-103H; first compound 0.04 µM", "value": 0.743}, {"measurement": "relative viability", "setting": "LCLC-103H; first compound 0.1265 µM", "value": 0.674}, {"measurement": "relative viability", "setting": "LCLC-103H; first compound 0.4 µM", "value": 0.804}, {"measurement": "relative viability", "setting": "LCLC-103H; first compound 4 µM", "value": 0.706}, {"measurement": "relative viability", "setting": "SK-LU-1; first compound 0.04 µM", "value": 0.765}, {"measurement": "relative viability", "setting": "SK-LU-1; first compound 0.1265 µM", "value": 0.831}, {"measurement": "relative viability", "setting": "SK-LU-1; first compound 0.4 µM", "value": 0.811}, {"measurement": "relative viability", "setting": "SK-LU-1; first compound 4 µM", "value": 0.568}]}]}
